US8563602B2, “Method of improving animal tissue quality by supplementing the animal diet with oleic acid and selected tocols” (E.I. du Pont de Nemours and Co., priority 2004, dated 2013)
Marks after values point to notes of the source that are not given here.

Columns and labels:
[1] = In vitro addition of gamma-tocopherol to ground pork: TBARS of cooked patties; conditions: GT 100 ppm added in vitro to raw ground pork, HO = pork from swine fed high oleic diet
Method: Applicants assessed the effects of in vitro addition of gamma-tocopherol to ground pork from swine fed a diet supplemented with oleic acid in order to evaluate gamma tocopherol's value as an animal feed supplement when used in conjunction with oleic acid. Gamma-tocopherol was added to the raw (uncooked) ground pork from swine whose diet was not supplemented with oleic acid and swine whose diet was supplemented with oleic acid. Ground pork from pigs fed the respective treatments were formed into patties, cooked and refrigerated for two days in plastic pouches. Samples of the cooked patties were then submitted for TBARS (thiobarbituric acid reactive substances) determination at 0 hours and 24 hours following refrigeration.

swine [2] = assay: 2003 swine feed test: ground pork visual color score on simulated retail display; format: in vivo; conditions: recalculated from Table 6: oleic acid level High or tocotrienol addition 225 ppm
Text: (§1) Applicants assessed the effects of supplementing the animal diet with oleic acid and tocotrienol on pork meat quality in an experiment in which data from pigs fed one of four dietary treatments were compared. Seventy-two barrows (approximately 20 kg) were randomly placed in pens with water and feed provided ad libitum at the Pioneer Livestock Nutrition Center (PLNC) in Polk City, Iowa. Ad libitum swine feeding continued for 49 days (through Mar. 4, 2003) until the average weight reached 32 kg. A uniform group of 64 pigs was selected, and the pigs were randomly assigned to each of four treatments with 16 experimental units (individually housed pigs) per dietary treatment.
(§2) On Apr. 22, 2003 (Day 1 of the feed test) the feeders were emptied and the dietary treatments were commenced and continued until Jul. 14, 2003 (Day 83). Dietary treatments consisted of two levels of oleic acid (normal and high) with or without tocotrienol (0 or 225 ppm), as summarized below:
(§3) Samples of ground pork were packaged in PVC wrap and kept on simulated retail display for seven days. During that time trained panelists made a subjective determination of the overall color score and percent discoloration of the ground pork.
Overall color was graded on a scale of 1.0 to 5.0 as follows: 1.0=bright grayish-pink or reddish-pink (acceptable), 2.0=grayish-pink or reddish-pink (acceptable), 3.0=slightly dark pink/red/pink/tan(acceptable), 3.5=threshold of retail acceptability, 4.0=moderately tan/pinkish-red (unacceptable), and 5.0=dark tan or dark pinkish-red (unacceptable).

swine [3] = assay: 2003 swine feed test: ground pork discoloration on simulated retail display; format: in vivo; conditions: recalculated from Table 8: oleic acid level High or tocotrienol addition 225 ppm
Text: as §1, §2, §3
Percent discoloration was also determined subjectively. In the table that follows, a higher number indicates a greater percent discoloration: […]

swine [4] = assay: 2003 swine feed test: belly thickness and flex; format: in vivo; conditions: recalculated from Table 2: oleic acid level High or tocotrienol addition 225 ppm
Text: as §1, §2
In the normal or control (CO) diet, the total dietary content of oil was 5.5 wt % of the feed. The oil was a typical corn oil having an oleic acid content of 29.6 wt % of the fatty acid fraction. In the high-oleic acid (HO) diet, the total dietary content of oil was still 5.5 wt %, but the oil was high-oleic sunflower oil with an oleic acid content of 80.2 wt % of the fatty acid fraction. The high oleic sunflower oil was purchased from Cargill, Inc. All four experimental diets were formulated with soybean meal and corn flaking grits. The latter, being largely devoid of oil, were used in conjunction with the corn and high-oleic vegetable oils to achieve the desired dietary fatty acid content. […]
The pigs were slaughtered at an average weight of 120 kg on Jul. […] Following a 24 hour chill period, the carcasses were transferred to the University of Missouri processing lab, where weight yields were recorded and meat tissue was evaluated.
The right pork carcass side was fabricated into primal and sub-primal cuts and the bellies were evaluated for thickness, firmness and fatty acid profile.

swine [5] = assay: 2003 swine feed test: TBARS content of uncooked and cooked ground pork; format: in vivo; conditions: recalculated from Table 10: oleic acid level High or tocotrienol addition 225 ppm
Text: as §1, §2
[…]. Cooked ground pork was measured for TBARS concentration at 0 hours and 24 hours after cooking.

swine [6] = assay: 2003 swine feed test: belly adipose tissue fatty acid composition and iodine value; format: in vivo; conditions: recalculated from Table 4: oleic acid level High or tocotrienol addition 225 ppm
Text: as §1, §2
In the normal or control (CO) diet, the total dietary content of oil was 5.5 wt % of the feed. The oil was a typical corn oil having an oleic acid content of 29.6 wt % of the fatty acid fraction. In the high-oleic acid (HO) diet, the total dietary content of oil was still 5.5 wt %, but the oil was high-oleic sunflower oil with an oleic acid content of 80.2 wt % of the fatty acid fraction. The high oleic sunflower oil was purchased from Cargill, Inc. All four experimental diets were formulated with soybean meal and corn flaking grits. The latter, being largely devoid of oil, were used in conjunction with the corn and high-oleic vegetable oils to achieve the desired dietary fatty acid content.
The tocotrienol used to supplement the (TT) and the (HO+TT) diets was obtained commercially from Fuji Chemical Industries (U.S.A.) Inc. of Robbinsville, N.J., and contained 7.5% alpha-, 12.3% gamma- and 3.0% delta-tocotrienol (a total tocotrienol content of 22.8%), as well as 7.2% alpha-tocopherol.
The fatty acid composition and iodine values in the pork belly adipose tissue was measured.

steers = assay: 2004 cattle feed test: uncooked ribeye steak discoloration; format: in vivo; conditions: recalculated from Table 16: oleic acid level High or tocotrienol addition 150 ppm
Text: Applicants assessed the effects of supplementing the animal diet with oleic acid and tocotrienol on beef quality in an experiment in which data from steers fed one of four dietary treatments were compared. The steers were blocked by weight (heavy or light) and assigned to eight outdoor group pens with five steers per pen. Pens were randomly assigned within each of the two weight blocks to four dietary treatments: (1) simulated oil-rich corn grain (coarse corn grits with corn oil added as 6% of the weight of the grits plus oil) (CO); (2) simulated oil-rich corn grain (coarse corn grits with a similar level of corn oil) with supplemental tocotrienol (CO+TT), (3) simulated high oleic acid corn grain (coarse corn grits with high oleic sunflower oil added as 6% of the weight of the grits plus oil) (HO); and (4) simulated high oleic acid corn grain (coarse corn grits with high oleic sunflower oil added as 6% of the weight of the grits plus oil) with supplemental tocotrienol (HO+TT); as summarized below:
The steers were fed their respective dietary supplements for 133 days starting Apr. 12, 2004 and ending Aug. 23, 2004. The cattle were loaded on Aug. 24, 2004 and transported to Emporia, Kans. for harvest at the IBP packing plant. Steaks and ground beef samples were evaluated for, among other things, color, shelf life (as measured by percent discoloration over time) and rancidity (as measured by TBARS concentration over time).
Ribeye steaks utilized for color evaluation were placed onto 17S foam trays with meat, fish and poultry pads (Dri-Loc AC-50) and wrapped with polyvinyl chloride (PVC) film. The steaks were placed under simulated retail display at 34+/−3 degree F. in open top cases programmed to defrost twice daily for seven days. During that time trained panelists made subjective determinations of the overall color score and percent discoloration of the ribeye steaks. […]
Percent discoloration was also determined subjectively. […]

Cc1c(O)cc2c(c1C)O[C@](C)(CCC[C@H](C)CCC[C@H](C)CCCC(C)C)CC2 [GT, gamma-tocopherol]
TBARS content of cooked ground pork patties ([1]; 0 hours following refrigeration): 0.746 mg malonaldehyde/kg sample
TBARS content of cooked ground pork patties ([1]; 24 hours following refrigeration): 1.24 mg malonaldehyde/kg sample

CCCCCCCC/C=C\CCCCCCCC(=O)O [Oleic Acid, oleic acid]
Ground pork visual color score (swine [2]; Day 3): 1.81
Ground pork visual color score (swine [2]; Day 4): 2.67
Ground pork visual color score (swine [2]; Day 5): 4.38
Ground pork discoloration (swine [3]; Day 3): 2.41
Ground pork discoloration (swine [3]; Day 4): 2.84
Ground pork discoloration (swine [3]; Day 5): 4.64
Belly thickness (swine [4]): 35.6 mm
Lateral flex (swine [4]): 11.0^b
Vertical flex (swine [4]): 18.7
Ground pork oxidation (TBARS) (swine [5]; cooked, 0 hours): 0.69^b mg malonaldehyde/kg sample
Ground pork oxidation (TBARS) (swine [5]; cooked, 24 hours): 1.73^b mg malonaldehyde/kg sample
Ground pork oxidation (TBARS) (swine [5]; uncooked, Day 0): 0.28 mg malonaldehyde/kg sample
Ground pork oxidation (TBARS) (swine [5]; uncooked, Day 4): 0.34 mg malonaldehyde/kg sample
Ground pork oxidation (TBARS) (swine [5]; uncooked, Day 7): 0.41 mg malonaldehyde/kg sample
Iodine Value (IV) (swine [6]): 63.7^b
Monounsaturated Fatty Acid (MUFA) (swine [6]): 55.55^b
Polyunsaturated Fatty Acids (PUFA) (swine [6]): 9.67^b
Uncooked ribeye steak discoloration (steers; Day 3): 1.4
Uncooked ribeye steak discoloration (steers; Day 5): 1.1^b
Uncooked ribeye steak discoloration (steers; Day 7): 1.6
